Experimental data as given in the supplement of paper PMC10307832.

Key:
Assay in all cases: relative viability (nuclei count vs DMSO), 5 days (fraction); higher = more cells survive
[1] = tested on: 201T
In short: (§1)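 The day after seeding in 1536-well plates, lung cancer cell lines were treated by pin tool with a single drug, or with a fixed anchor-drug dose together with five library-drug doses (not always all listed) in √10 steps. After 5 days, a combined fix-and-stain solution (final 0.05% Triton X-100, 1% formaldehyde, 1 ug/ml Hoechst) was added. Nuclei counted on 4× images gave relative viability as treated counts over vehicle counts, reported as the median of duplicate plates.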

[2] = tested on: EPLC-272H
In short: as §1

[3] = tested on: HCC-78
In short: as §1

[4] = tested on: LCLC-97TM1
In short: as §1

[5] = tested on: LOU-NH91
In short: as §1

[6] = tested on: NCI-H1355
In short: as §1

[7] = tested on: NCI-H1651
In short: as §1

[8] = tested on: NCI-H1734
In short: as §1

[9] = tested on: NCI-H1792
In short: as §1

[10] = tested on: NCI-H1793
In short: as §1

[11] = tested on: NCI-H1915
In short: as §1

[12] = tested on: NCI-H1993
In short: as §1

[13] = tested on: NCI-H2228
In short: as §1

[14] = tested on: NCI-H460
In short: as §1

[15] = tested on: NCI-H596
In short: as §1

[16] = tested on: PC-3 [JPC-3]
In short: as §1

[17] = tested on: RERF-LC-KJ
In short: as §1

[18] = tested on: SK-MES-1
In short: as §1

[19] = tested on: SW 1573
In short: as §1

Question: For `C=C1C(=O)O[C@@H](CCCCCCCC)[C@@H]1C(=O)O` [C-75] + CC1(C)CCC(c2ccc(Cl)cc2)=C(CN2CCN(c3ccc(C(=O)NS(=O)(=O)c4ccc(N[C@H](CCN5CCOCC5)CSc5ccccc5)c(S(=O)(=O)C(F)(F)F)c4)cc3)CC2)C1 [Navitoclax] (partner 0.5 µM), which relative viability ([1]; first compound 0.08 µM) is on record?
Answer: The relative viability was 1.23.

Question: And the relative viability ([1]; first compound 0.253 µM)?
Answer: The relative viability was 1.27.

Question: And the relative viability ([1]; first compound 0.8 µM)?
Answer: The relative viability was 1.23.

Question: What about the relative viability ([1]; first compound 2.53 µM) of the same molecule?
Answer: Its relative viability is 1.17.

Question: What about the relative viability ([1]; first compound 8 µM) of the same molecule?
Answer: Its relative viability is 1.21.

Question: And the relative viability ([2]; first compound 0.08 µM)?
Answer: Its relative viability is 1.22.

Question: What about the relative viability ([2]; first compound 0.253 µM) of the same molecule?
Answer: The relative viability was 1.03.

Question: What about the relative viability ([2]; first compound 0.8 µM) of the same molecule?
Answer: The relative viability was 1.21.

Question: What about the relative viability ([2]; first compound 2.53 µM) of the same molecule?
Answer: Its relative viability is 0.856.

Question: What about the relative viability ([2]; first compound 8 µM) of the same molecule?
Answer: The relative viability was 0.961.

Question: What about the relative viability ([3]; first compound 0.08 µM) of the same molecule?
Answer: Its relative viability is 0.791.

Question: What about the relative viability ([3]; first compound 0.253 µM) of the same molecule?
Answer: Its relative viability is 0.834.

Question: What about the relative viability ([3]; first compound 0.8 µM) of the same molecule?
Answer: The relative viability was 0.75.

Question: And the relative viability ([3]; first compound 2.53 µM)?
Answer: The relative viability was 0.708.

Question: What about the relative viability ([3]; first compound 8 µM) of the same molecule?
Answer: Its relative viability is 0.864.

Question: What about the relative viability ([4]; first compound 0.08 µM) of the same molecule?
Answer: The relative viability was 0.36.

Question: What about the relative viability ([4]; first compound 0.253 µM) of the same molecule?
Answer: The relative viability was 0.697.

Question: And the relative viability ([4]; first compound 0.8 µM)?
Answer: Its relative viability is 0.357.

Question: What about the relative viability ([4]; first compound 2.53 µM) of the same molecule?
Answer: Its relative viability is 0.304.

Question: What about the relative viability ([4]; first compound 8 µM) of the same molecule?
Answer: The relative viability was 0.292.

Question: And the relative viability ([5]; first compound 0.08 µM)?
Answer: The relative viability was 0.756.

Question: And the relative viability ([5]; first compound 0.253 µM)?
Answer: Its relative viability is 0.679.

Question: And the relative viability ([5]; first compound 0.8 µM)?
Answer: Its relative viability is 0.643.

Question: And the relative viability ([5]; first compound 2.53 µM)?
Answer: The relative viability was 0.55.

Question: What about the relative viability ([5]; first compound 8 µM) of the same molecule?
Answer: The relative viability was 0.776.

Question: And the relative viability ([6]; first compound 0.08 µM)?
Answer: Its relative viability is 0.951.

Question: What about the relative viability ([6]; first compound 0.253 µM) of the same molecule?
Answer: Its relative viability is 0.894.

Question: And the relative viability ([6]; first compound 0.8 µM)?
Answer: The relative viability was 0.867.

Question: And the relative viability ([6]; first compound 2.53 µM)?
Answer: Its relative viability is 0.952.

Question: And the relative viability ([6]; first compound 8 µM)?
Answer: Its relative viability is 0.956.

Question: And the relative viability ([7]; first compound 0.08 µM)?
Answer: Its relative viability is 1.07.

Question: What about the relative viability ([7]; first compound 0.253 µM) of the same molecule?
Answer: The relative viability was 1.11.

Question: And the relative viability ([7]; first compound 0.8 µM)?
Answer: Its relative viability is 0.955.

Question: And the relative viability ([7]; first compound 2.53 µM)?
Answer: Its relative viability is 0.885.

Question: And the relative viability ([7]; first compound 8 µM)?
Answer: Its relative viability is 0.901.

Question: And the relative viability ([8]; first compound 0.08 µM)?
Answer: The relative viability was 0.828.

Question: What about the relative viability ([8]; first compound 0.253 µM) of the same molecule?
Answer: The relative viability was 0.778.

Question: What about the relative viability ([8]; first compound 0.8 µM) of the same molecule?
Answer: The relative viability was 0.815.

Question: What about the relative viability ([8]; first compound 2.53 µM) of the same molecule?
Answer: The relative viability was 0.629.

Question: What about the relative viability ([8]; first compound 8 µM) of the same molecule?
Answer: The relative viability was 0.754.

Question: And the relative viability ([9]; first compound 0.08 µM)?
Answer: Its relative viability is 0.595.

Question: And the relative viability ([9]; first compound 0.253 µM)?
Answer: Its relative viability is 0.575.

Question: What about the relative viability ([9]; first compound 0.8 µM) of the same molecule?
Answer: Its relative viability is 0.46.

Question: And the relative viability ([9]; first compound 2.53 µM)?
Answer: Its relative viability is 0.303.

Question: What about the relative viability ([9]; first compound 8 µM) of the same molecule?
Answer: The relative viability was 0.59.

Question: What about the relative viability ([10]; first compound 0.08 µM) of the same molecule?
Answer: Its relative viability is 0.494.

Question: And the relative viability ([10]; first compound 0.253 µM)?
Answer: Its relative viability is 0.564.

Question: And the relative viability ([10]; first compound 0.8 µM)?
Answer: The relative viability was 0.313.

Question: And the relative viability ([10]; first compound 2.53 µM)?
Answer: Its relative viability is 0.308.

Question: And the relative viability ([10]; first compound 8 µM)?
Answer: Its relative viability is 0.29.

Question: What about the relative viability ([11]; first compound 0.08 µM) of the same molecule?
Answer: The relative viability was 0.818.

Question: What about the relative viability ([11]; first compound 0.253 µM) of the same molecule?
Answer: Its relative viability is 0.785.

Question: And the relative viability ([11]; first compound 0.8 µM)?
Answer: The relative viability was 0.774.

Question: And the relative viability ([11]; first compound 2.53 µM)?
Answer: The relative viability was 0.386.

Question: And the relative viability ([11]; first compound 8 µM)?
Answer: The relative viability was 0.781.

Question: What about the relative viability ([12]; first compound 0.08 µM) of the same molecule?
Answer: Its relative viability is 1.03.

Question: And the relative viability ([12]; first compound 0.253 µM)?
Answer: The relative viability was 0.944.

Question: And the relative viability ([12]; first compound 0.8 µM)?
Answer: Its relative viability is 0.995.

Question: And the relative viability ([12]; first compound 2.53 µM)?
Answer: The relative viability was 0.938.

Question: What about the relative viability ([12]; first compound 8 µM) of the same molecule?
Answer: The relative viability was 1.11.

Question: And the relative viability ([13]; first compound 0.08 µM)?
Answer: The relative viability was 1.04.

Question: What about the relative viability ([13]; first compound 0.253 µM) of the same molecule?
Answer: Its relative viability is 1.21.

Question: What about the relative viability ([13]; first compound 0.8 µM) of the same molecule?
Answer: Its relative viability is 0.707.

Question: What about the relative viability ([13]; first compound 2.53 µM) of the same molecule?
Answer: Its relative viability is 0.973.

Question: And the relative viability ([13]; first compound 8 µM)?
Answer: The relative viability was 0.75.

Question: And the relative viability ([14]; first compound 0.08 µM)?
Answer: The relative viability was 1.14.

Question: And the relative viability ([14]; first compound 0.253 µM)?
Answer: Its relative viability is 1.23.

Question: And the relative viability ([14]; first compound 0.8 µM)?
Answer: The relative viability was 1.04.

Question: And the relative viability ([14]; first compound 8 µM)?
Answer: Its relative viability is 1.08.

Question: And the relative viability ([15]; first compound 0.08 µM)?
Answer: Its relative viability is 0.961.

Question: And the relative viability ([15]; first compound 0.253 µM)?
Answer: Its relative viability is 1.16.

Question: What about the relative viability ([15]; first compound 0.8 µM) of the same molecule?
Answer: Its relative viability is 0.901.

Question: What about the relative viability ([15]; first compound 2.53 µM) of the same molecule?
Answer: The relative viability was 0.771.

Question: What about the relative viability ([15]; first compound 8 µM) of the same molecule?
Answer: Its relative viability is 0.897.

Question: And the relative viability ([16]; first compound 0.08 µM)?
Answer: The relative viability was 0.853.

Question: And the relative viability ([16]; first compound 0.253 µM)?
Answer: The relative viability was 0.841.

Question: And the relative viability ([16]; first compound 0.8 µM)?
Answer: Its relative viability is 0.841.

Question: And the relative viability ([16]; first compound 2.53 µM)?
Answer: Its relative viability is 0.826.

Question: And the relative viability ([16]; first compound 8 µM)?
Answer: The relative viability was 0.874.

Question: What about the relative viability ([17]; first compound 0.08 µM) of the same molecule?
Answer: Its relative viability is 0.91.

Question: And the relative viability ([17]; first compound 0.253 µM)?
Answer: The relative viability was 1.47.

Question: And the relative viability ([17]; first compound 0.8 µM)?
Answer: The relative viability was 0.881.

Question: And the relative viability ([17]; first compound 2.53 µM)?
Answer: Its relative viability is 0.843.

Question: And the relative viability ([17]; first compound 8 µM)?
Answer: The relative viability was 0.802.

Question: And the relative viability ([18]; first compound 0.08 µM)?
Answer: Its relative viability is 1.31.

Question: And the relative viability ([18]; first compound 0.253 µM)?
Answer: Its relative viability is 1.23.

Question: What about the relative viability ([18]; first compound 0.8 µM) of the same molecule?
Answer: The relative viability was 1.16.

Question: What about the relative viability ([18]; first compound 2.53 µM) of the same molecule?
Answer: The relative viability was 1.21.

Question: What about the relative viability ([18]; first compound 8 µM) of the same molecule?
Answer: Its relative viability is 1.17.

Question: What about the relative viability ([19]; first compound 0.08 µM) of the same molecule?
Answer: The relative viability was 1.01.

Question: And the relative viability ([19]; first compound 0.253 µM)?
Answer: The relative viability was 0.969.

Question: And the relative viability ([19]; first compound 0.8 µM)?
Answer: The relative viability was 1.21.

Question: And the relative viability ([19]; first compound 2.53 µM)?
Answer: Its relative viability is 1.06.

Question: And the relative viability ([19]; first compound 8 µM)?
Answer: Its relative viability is 0.875.
